This note sets out measurements from US9844549B2, “2-aminothiazole derivative or salt thereof” (ASTELLAS PHARMA INC., priority 2014, dated 2017).

SMILES strings stand for the structures. Where a name gives a salt, the structure may show the parent alone.

One assay deals with rat isolated bladder. The experiment in a line: Effect on electrical field stimulation-induced contraction in rat isolated bladder. As to conditions: AUC of contraction, value before treatment = 100%, SD female rat bladder, read-out: Enhancement rate of extracted bladder contractions (% of pre). The procedure:
Test Example 2: Effect on Electrical Field Stimulation-Induced Contraction in Rat Isolated Bladder
As an effect on the nerve stimulation-dependent bladder contraction in in vitro, the effect of the Example compounds of the present invention in the electrical field stimulation-induced contraction of the rat isolated bladder was measured by the following method. That is, a bladder specimen having a width of about 2 mm and a length of about 10 mm in the longitudinal direction from the bladder isolated from a Sprague-Dawley (SD) female rat (Japan SLC, Inc.) was prepared. The prepared bladder specimen was suspended in an organ bath filled with 10 mL of a Krebs-Henseleite solution. The Krebs-Henseleite solution was aerated at 95% 02 and 5% CO2, and kept at 37° C. After carrying out stabilization at an initial tension of 1 g, the contraction was caused twice with 60 mM KCl. After stabilization of the specimen with a Krebs-Henseleite solution, the contraction was caused by carrying out electrical field stimulation at 20 V with an electrical stimulation device (Nihon Kohden) (a stimulation frequency of 8 Hz, a pulse width of 0.3 msec, and a stimulation time of 10 seconds). By repeating the transmural electrical stimulation at an interval of 2 minutes, a voltage was adjusted to obtain a contraction height of approximately 50% of the contractile response at 20 V. After the contraction by electrical field stimulation had been stabilized, 10 μL of the test substances dissolved in 100% DMSO in advance (final concentrations of 3 μM, 10 μM, and 30 μM) was added thereto. The test substances were cumulatively administered at the following concentrations after the low-concentration contractile response had been stabilized. The response was taken into a personal computer through a PowerLab (registered trademark) (AD Instruments, Inc.), and analyzed by LabChart (registered trademark) (AD Instruments, Inc.). When the area under the response (area under curve, AUC) in each contraction response was calculated and the value before treatment with the test substance was taken as 100%, the enhancement rate (% of pre) of the isolated bladder contractions after treatment with the test substance was calculated.

Another assay has as its system anesthetized rats. The experiment in a line: Effect on pelvic nerve stimulation-induced elevation of intravesical pressure in anesthetized rats. The note with it: Rattus norvegicus; 3 mg/kg intravenous; maximum effect within one hour; AUC, pre-treatment = 100%; SD female rats; read-out: Increase rate of intravesical pressure (% of pre). Type of assay: in vivo. On the procedure: Test Example 3: Effect on Pelvic Nerve Stimulation-Induced Elevation of Intravesical Pressure in Anesthetized Rats
The effect of the Example compounds of the present invention in the pelvic nerve electrical stimulation-induced elevation of intravesical pressure using rats as an action of nerve stimulation-dependent bladder contraction in vivo was measured by the following method. That is, SD female rats (Japan SLC, Inc.) were used and its lower abdomen was dissected at the midline under pentobarbital anesthesia (50 mg/kg ip). After ligating and cutting the ureter on both sides, a cannula (PE-50) for measuring the intravesical pressure was inserted into the bladder from the external urethral opening and fixed by a clip. After injecting about 200 μL of saline through the cannula that had been inserted into the bladder, the other side was connected to a pressure transducer to measure the intravesical pressure. Under a stereoscopic microscope observation, the pelvic nerve in the vicinity of the bladder was peeled and an electrode for nerve stimulation (unique Medical) was placed. The abdominal cavity was filled with mineral oil (MP BIOMEDICALS). After placing in a post-operative stabilization period, the pelvic nerve was subjected to electrical stimulation (stimulation voltage: 10 V, stimulation frequency: 8 Hz, pulse width: 0.3 msec, and stimulation time: 10 seconds) to elicit the elevation of intravesical pressure, using an electrical stimulator (Nihon Kohden). By repeating the electrical stimulation at an interval of 2 minutes while adjusting the voltage, the voltage was adjusted to elicit about 50% to 70% elevation of intravesical pressure elicited at 10 V. Thereafter, by repeating the electrical stimulation at an interval of 10 minutes, the increase in the intravesical pressure by electrical stimulation was stabilized three times or more, and the test substance (an administration amount of 3 mg/kg) was then administered from the catheter detained in the vein at a volume of 1 mL/kg, thus measuring an effect of the elevation of the intravesical pressure of the test substance for 1 hour. The test substance was dissolved in water supplemented with 10% DMSO and 10% Cremophor.
The response was applied to a personal computer through a PowerLab (registered trademark) and analyzed by LabChart (registered trademark). The AUC of each elevation of the intravesical pressure was calculated, the intravesical pressure elevation rate (% of pre) after the treatment with the test substance was calculated by taking an average value of the values measured three times before the treatment with the test substance as 100%, and the maximum effect during a period within one hour after administration of the compound was considered as the effect of the test substance.

Regarding `C[C@@H]1CCCN1Cc1sc(Nc2ncnc(N3CCN(CCC(=O)O)CC3)c2F)nc1-c1cc(Cl)cc(C(F)(F)F)c1` [Example 11, 3-(4-{6-[(4-[3-chloro-5-(trifluoromethyl)phenyl]-5-{[(2R)-2-methylpyrrolidin-1-yl]methyl}-1,3-thiazol-2-yl)amino]-5-fluoropyrimidin-4-yl}piperazin-1-yl)propanoic acid trihydrochloride], the activity at 10 µM in the assay on rat isolated bladder was 219%. Also, the response vs control in vivo at 3 mg/kg with anesthetized rats is 181%.
In the same order, the values of `Cc1nc(Nc2nc(-c3cc(F)cc(C(F)(F)F)c3)c(CN3[C@H](C)CC[C@H]3C)s2)c(F)c(N2CCN(CCC(=O)O)CC2)n1` [Example 4, sodium 3-(4-{6-[(5-{[(2R,5R)-2,5-dimethylpyrrolidin-1-yl]methyl}-4-[3-fluoro-5-(trifluoromethyl)phenyl]-1,3-thiazol-2-yl)amino]-5-fluoro-2-methylpyrimidin-4-yl}piperazin-1-yl)propanoate] are 127% and 178%.
In the same order, the values of `C[C@@H]1CCCN1Cc1sc(Nc2cc(N3CCN(CCC(=O)O)CC3)ncn2)nc1-c1cc(F)cc(C(F)(F)F)c1` [Example 14] are 169% and 121%.
For the compound `Cc1nc(Nc2nc(-c3cc(F)cc(C(F)(F)F)c3)c(CN3CCC[C@H]3C)s2)c(F)c(N2CCN(CCC(=O)O)CC2)n1` [Example 18], the activity at 10 µM in the assay on rat isolated bladder turned out to be 199%. In addition, the response vs control in vivo at 3 mg/kg in the assay with anesthetized rats was found to be 153%.
The matching figures for `CC[C@@H]1CCCN1Cc1sc(Nc2ncnc(N3CCC(OCC(=O)O)CC3)c2F)nc1-c1cc(Cl)cc(C(F)(F)F)c1` [Example 13, [(1-{6-[(4-[3-chloro-5-(trifluoromethyl)phenyl]-5-{[(2R)-2-ethylpyrrolidin-1-yl]methyl}-1,3-thiazol-2-yl)amino]-5-fluoropyrimidin-4-yl}piperidin-4-yl)oxy]acetic acid dihydrochloride]: 127% and 186%.
The matching figures for `COC[C@@H]1CN(c2ncnc(Nc3nc(-c4ccc(Cl)c(C(F)(F)F)c4)c(CN4CCC[C@H]4C)s3)c2F)CCN1CCC(=O)O` [Example 1, 3-[(2S)-4-{6-[(4-[4-chloro-3-(trifluoromethyl)phenyl]-5-{[(2R)-2-methylpyrrolidin-1-yl]methyl}-1,3-thiazol-2-yl)amino]-5-fluoropyrimidin-4-yl}-2-(methoxymethyl)piperazin-1-yl]propanoic acid trihydrochloride]: 120% and 197%.
In the same order, the values of `CC1CC[C@@H](C)N1Cc1sc(Nc2ncnc(N3CCN(CCC(=O)O)CC3)c2F)nc1-c1cc(F)cc(C(F)(F)F)c1` (stereo in doubt) [Example 8, sodium 3-(4-{6-[(5-{[(2R,5R)-2,5-dimethylpyrrolidin-1-yl]methyl}-4-[3-fluoro-5-(trifluoromethyl)phenyl]-1,3-thiazol-2-yl)amino]-5-fluoropyrimidin-4-yl}piperazin-1-yl)propanoate] are 193% and 178%.
On to `C[C@@H]1CCCN1Cc1sc(Nc2ncnc(N3CCN(CCC(=O)O)CC3)c2F)nc1-c1cc(F)cc(C(F)(F)F)c1` [Example 17], for which the activity at 10 µM with rat isolated bladder was 199%. In the assay on anesthetized rats, the response vs control in vivo at 3 mg/kg was 144%.
The matching figures for `Cc1nc(Nc2nc(-c3cc(F)cc(C(F)(F)F)c3)c(CN3CCC[C@H]3C)s2)cc(N2CCN(CCC(=O)O)CC2)n1` [Example 3, 3-(4-{6-[(4-[3-fluoro-5-(trifluoromethyl)phenyl]-5-{[(2R)-2-methylpyrrolidin-1-yl]methyl}-1,3-thiazol-2-yl)amino]-2-methylpyrimidin-4-yl}piperazin-1-yl)propanoic acid trihydrochloride]: 136% and 146%.
With `C[C@@H]1CCCN1Cc1sc(Nc2cc(N3CCN(CCC(=O)O)CC3)ccn2)nc1-c1cc(F)cc(C(F)(F)F)c1` [Example 19], the activity at 10 µM with rat isolated bladder stood at 161%. In the assay on anesthetized rats, the response vs control in vivo at 3 mg/kg is 125%.
In the same order, the values of `C[C@@H]1CCCN1Cc1sc(Nc2ncnc(N3CCC(OCC(=O)O)CC3)c2F)nc1-c1cc(F)cc(C(F)(F)F)c1` [Example 12, [(1-{5-fluoro-6-[(4-[3-fluoro-5-(trifluoromethyl)phenyl]-5-{[(2R)-2-methylpyrrolidin-1-yl]methyl}-1,3-thiazol-2-yl)amino]pyrimidin-4-yl}piperidin-4-yl)oxy]acetic acid dihydrochloride] are 166% and 152%.
The matching figures for `COC[C@@H]1CN(c2ncnc(Nc3nc(-c4cc(F)cc(C(F)(F)F)c4)c(CN4CCC[C@H]4C)s3)c2F)CCN1CCC(=O)O` [Example 10, 3-[(2S)-4-{5-fluoro-6-[(4-[3-fluoro-5-(trifluoromethyl)phenyl]-5-{[(2R)-2-methylpyrrolidin-1-yl]methyl}-1,3-thiazol-2-yl)amino]pyrimidin-4-yl}-2-(methoxymethyl)piperazin-1-yl]propanoic acid trihydrochloride]: 271% and 169%.
Turning to `C[C@@H]1CCCN1Cc1sc(Nc2ncnc(N3CCN(CCC(=O)O)CC3)c2F)nc1-c1ccc(Cl)c(C(F)(F)F)c1` [Example 9, 3-(4-{6-[(4-[4-chloro-3-(trifluoromethyl)phenyl]-5-{[(2R)-2-methylpyrrolidin-1-yl]methyl}-1,3-thiazol-2-yl)amino]-5-fluoropyrimidin-4-yl}piperazin-1-yl)propanoic acid trihydrochloride], in the assay on rat isolated bladder, the activity at 10 µM is 187%. Moreover, the response vs control in vivo at 3 mg/kg with anesthetized rats was 200%.
Consider `COc1c(Nc2nc(-c3cc(F)cc(C(F)(F)F)c3)c(CN3CCC[C@H]3C)s2)ncnc1N1CCN(CCC(=O)O)CC1` [Example 91], for which the activity at 10 µM in the assay on rat isolated bladder worked out at 124%. The response vs control in vivo at 3 mg/kg in the assay on anesthetized rats was found to be 144%.
